Values quoted from earlier work as cited in US5688524A, “Transdermal formulations for administering prazosin” (Cygnus, Inc., priority 1993, dated 1997).

What was measured:
[1] = oral; incomplete absorption, GI degradation, first pass liver metabolism
[2] = tested on: benign prostatic hypertrophy (BPH); settings: in vivo

COc1cc2nc(N3CCN(C(=O)c4ccco4)CC3)nc(N)c2cc1OC [prazosin]
bioavailability [1]: incomplete bioavailability | effect in treating benign prostatic hypertrophy (BPH) [2]: effective in treating benign prostatic hypertrophy (BPH)
